Data: patent US20090068746A1, “METHOD FOR MEASURING INTERACTION BETWEEN PHYSIOLOGICALLY ACTIVE SUBSTANCE AND TEST SUBSTANCE” (FUJIFILM Corporation, priority 2007, published 2009)

System: Carbonic Anhydrase (CA)
Assay: Surface plasmon resonance binding of compound to biotinylated CA-immobilized substrate
Details: for Binding signal (binding observed or not) / Amount of 100 nM Hydrochlorothiazide bound: 100 nM in 1×PBS (pH 7.4); for Binding signal (binding observed or not): all the substrates; for Binding activity / Mean binding activity: 100 nM; for Binding activity: one-to-one binding assumed, molecular weight conversion; for Mean binding activity: mean of the three substrates (7450, 3400, 1600 RV CA)

Row | Binding signal (binding observed or not) | Amount of 100 nM Hydrochlorothiazide bound (amount of CA immobilized 1600 RV, Comparative example (without calibration)) [RV] | Amount of 100 nM Hydrochlorothiazide bound (amount of CA immobilized 1600 RV, Example (with calibration of baseline, third curve approximation)) [RV] | Amount of 100 nM Hydrochlorothiazide bound (amount of CA immobilized 3400 RV, Example (with calibration of baseline, third curve approximation)) [RV] | Amount of 100 nM Hydrochlorothiazide bound (amount of CA immobilized 7450 RV, Comparative example (without calibration)) [RV] | Amount of 100 nM Hydrochlorothiazide bound (amount of CA immobilized 7450 RV, Example (with calibration of baseline, third curve approximation)) [RV] | Binding activity (CA immobilized 1600 RV, with calibration) [%] | Binding activity (CA immobilized 1600 RV, without calibration) [%] | Binding activity (CA immobilized 3400 RV, with calibration) [%] | Binding activity (CA immobilized 3400 RV, without calibration) [%] | Binding activity (CA immobilized 7450 RV, with calibration) [%] | Binding activity (CA immobilized 7450 RV, without calibration) [%] | Mean binding activity (with calibration) [%] | Mean binding activity (without calibration) [%] | SMILES
1 | binding signal was observed | 7.1 | 7.3 | 16.3 | 25.4 | 31.7 | 45.9 | 44.7 | 48.2 | 40.6 | 42.8 | 34.4 | 45.6 | 39.9 | NS(=O)(=O)c1cc2c(cc1Cl)NCNS2(=O)=O [Hydrochlorothiazide]
2 | no binding was observed | – | – | – | – | – | – | – | – | – | – | – | – | – | O=C(O)c1cccnc1 [Nicotinic acid]
